Measured values reported in ChEMBL document CHEMBL1132004, “Antagonism of the TXA2 receptor by seratrodast: a structural approach” (Bioorg Med Chem Lett, 1999).

Assay: The pKa of the sulfonamido group of the compound
Format: physicochemical

pKa: 6
Structure (SMILES): Cc1cccc(Nc2ccncc2S(=O)(=O)/N=C(\NC#N)N2CCCCCC2)c1
